Data reported in the supplement of paper PMC4862054.

Tests used:
Details in all cases: incubation time: 72 h
CAL-51 [1] = experiment: normalised viability (% of control), CellTiter-Blue; higher = more viable cells (about 100 = DMSO control)
Procedure: (§1)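 DSRT, CellTiter-Blue viability, 72 h incubation. Signal is normalised to DMSO and benzethonium chloride controls. Value is the normalised response at dose 7.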

MDA-MB-453 [2] = experiment: as above
Procedure: as §1

BT-474 [3] = experiment: normalised response (% of control), CellTox Green; higher = less cell death (100 = DMSO, 0 = benzethonium chloride kill control)
Summary of the method: (§2)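 Two readouts were taken after 72 h: CellTox Green fluorescence (485/520 nm) first, then CellTiter-Glo luminescence after 10 min at room temperature. Breast cancer cell lines had been seeded as 20 µl suspension into 384-well plates holding compound at 5 concentrations in 10-fold steps across a compound-specific 10,000-fold range. Each value is a normalised signal at a single concentration, with plates scaled to 0.1 % DMSO (100) and a positive kill control (0).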

CAL-148 [4] = experiment: as above
Summary of the method: as §2

HCC1143 [5] = experiment: as above
Summary of the method: as §2

MFM-223 [6] = experiment: as above
Summary of the method: as §2

DU-4475 = experiment: as above
Summary of the method: as §2

HCC1599 [7] = experiment: as above
Summary of the method: as §2

BT-549 [8] = experiment: as above
Summary of the method: as §2

CAL-51 [9] = experiment: normalised response (% of control), CellTiter-Glo; higher = more viable cells (100 = DMSO, 0 = benzethonium chloride kill control)
Summary of the method: as §2

CAL-120 = experiment: as above
Summary of the method: as §2

BT-474 [10] = experiment: as above
Summary of the method: as §2

CAL-148 [11] = experiment: as above
Summary of the method: as §2

MDA-MB-231 = experiment: as above
Summary of the method: as §2

CAL-85-1 = experiment: as above
Summary of the method: as §2

MDA-MB-468 = experiment: as above
Summary of the method: as §2

HCC1143 [12] = experiment: as above
Summary of the method: as §2

MFM-223 [13] = experiment: as above
Summary of the method: as §2

HDQ-P1 [14] = experiment: as above
Summary of the method: as §2

MDA-MB-436 = experiment: as above
Summary of the method: as §2

HCC1937 [15] = experiment: as above
Summary of the method: as §2

SK-BR-3 = experiment: as above
Summary of the method: as §2

HCC1599 [16] = experiment: as above
Summary of the method: as §2

BT-549 [17] = experiment: as above
Summary of the method: as §2

MDA-MB-453 [18] = experiment: as above
Summary of the method: as §2

Hs578T = experiment: as above
Summary of the method: as §2

MCF-10A = experiment: as above
Summary of the method: as §2

HDQ-P1 [19] = experiment: normalised response (% of control), CellTox Green; higher = less cell death (100 = DMSO, 0 = benzethonium chloride kill control)
Summary of the method: as §2

HCC1937 [20] = experiment: as above
Summary of the method: as §2

Row | SMILES | normalised viability (CAL-51 [1]) | normalised viability (MDA-MB-453 [2]) | normalised response (BT-474 [3]) | normalised response (CAL-148 [4]) | normalised response (HCC1143 [5]) | normalised response (MFM-223 [6]) | normalised response (DU-4475) | normalised response (HCC1599 [7]) | normalised response (BT-549 [8]) | normalised response (CAL-51 [9]) | normalised response (CAL-120) | normalised response (BT-474 [10]) | normalised response (CAL-148 [11]) | normalised response (MDA-MB-231) | normalised response (CAL-85-1) | normalised response (MDA-MB-468) | normalised response (HCC1143 [12]) | normalised response (MFM-223 [13]) | normalised response (HDQ-P1 [14]) | normalised response (MDA-MB-436) | normalised response (HCC1937 [15]) | normalised response (SK-BR-3) | normalised response (HCC1599 [16]) | normalised response (BT-549 [17]) | normalised response (MDA-MB-453 [18]) | normalised response (Hs578T) | normalised response (MCF-10A) | normalised response (HDQ-P1 [19]) | normalised response (HCC1937 [20])
1 | NC(=O)NO [Hydroxyurea] (10000 nM) | 104% | 108% | 100% | 98.2% | 98.7% | 79.9% | 103% | 103% | 115% | 45.2% | 95.7% | 92.7% | 101% | 103% | 98.2% | 107% | 105% | 105% | 100% | 97.7% | 98.4% | 110% | 111% | 90.8% | 114% | 109% | 109% |  | 
2 | Cc1c(N)nc([C@H](CC(N)=O)NC[C@H](N)C(N)=O)nc1C(=O)N[C@H](C(=O)N[C@H](C)[C@@H](O)[C@H](C)C(=O)N[C@H](C(=O)NCCc1nc(-c2nc(C(=O)NCCC[S+](C)C)cs2)cs1)[C@@H](C)O)[C@@H](OC1OC(CO)C(O)C(O)C1OC1OC(CO)C(O)C(OC(N)=O)C1O)c1cnc[nH]1 (some centres undefined) [Bleomycin] (1000 nM) | 105% | 94.3% | 98.2% | 58.4% | 99.9% | 88% | 97.5% | 94.8% | 92% | 49% | 91.9% | 91.3% | 82.1% | 88.3% | 91.9% | 86.1% | 83.1% | 99.6% | 103% | 82.3% | 94.2% | 84.8% | 105% | 66.7% | 91% | 86.5% | 96% | 54.8% | 
3 | CC[C@@H]1C(=O)N(C)c2cnc(Nc3ccc(C(=O)N[C@H]4CC[C@H](N5CCN(CC6CC6)CC5)CC4)cc3OC)nc2N1C(C)C [Volasertib] (100 nM) | 15.7% | 24.5% | 94.5% | 31.8% | 81.8% | 53.5% | 93.2% | 72.2% | 79% | 23.7% | 64.4% | 63.6% | 53% | 48.5% | 53% | 36.5% | 50.5% | 42% | 76.6% | 50.1% | 81% | 16.1% | 45.6% | 25.9% | 77.3% | 54.6% | 58.5% | -27.2% | 
4 | CO[C@H]1C[C@@H]2CC[C@@H](C)[C@@](O)(O2)C(=O)C(=O)N2CCCC[C@H]2C(=O)O[C@H]([C@H](C)C[C@@H]2CC[C@@H](O)[C@H](OC)C2)CC(=O)[C@H](C)/C=C(\C)[C@@H](O)[C@@H](OC)C(=O)[C@H](C)C[C@H](C)/C=C/C=C/C=C/1C [Sirolimus] (100 nM) | 29.2% | 27.9% | 103% | 94.4% | 101% | 103% | 98.5% | 106% | 93.7% |  |  |  |  |  |  |  |  |  |  |  |  |  |  |  |  |  |  | 108% | 49.5%
5 | CC/C(=C(\c1ccccc1)c1ccc(OCCN(C)C)cc1)c1ccccc1 [Tamoxifen] (1000 nM) | 78.4% | 105% | 101% | 106% | 122% | 74.9% | 105% | 103% | 94% | 81.8% | 94.8% | 95.9% | 103% | 103% | 99.8% | 93.8% | 104% | 97.9% | 106% | 97.7% | 102% | 103% | 107% | 96.1% | 93.1% | 106% | 104% |  | 
6 | CCN(CC)CCOc1ccc(C(=C(Cl)c2ccccc2)c2ccccc2)cc1 [Clomifene] (1000 nM) | 85.4% | 108% | 97.6% | 104% | 82.3% |  | 99.3% | 100% | 114% | 95.2% | 102% | 98.5% | 106% | 99.2% | 94.2% | 103% | 102% | 100% | 95.9% | 104% | 93.8% | 101% | 92.7% | 95.5% | 94.2% | 94.3% | 101% | 90.2% | 82.8%
